“Also recorded” adds a separate entry of the source. Where two headings read alike, the source gives them in different places.
What was measured:
[1] = ref National library of medicine, Daylimed; cited from earlier work
[2] = WHO adverse drug reactions VigiBase; ref Kumlien and Lundberg, 2010; cited from earlier work
[3] = established from VigiBase, SIDER, Elsevier drug information and FDA prescribing information
[4] = Supplementary Table S1; cited from earlier work
[5] = seizure ADR frequency in SIDER; ref Campillos et al., 2008; Kuhn et al., 2010; cited from earlier work
[6] = system: rat primary cortical neurons; assay: MEA hazard scoring in rat primary cortical neuronal cultures; settings: for Area.Under.Cross.Correlation Lower.TI / Area.Under.Cross.Correlation Upper.TI / Burst.Duration...Avg.(s. Lower.TI) / Burst.Duration...Avg.(s. Upper.TI) / Mean.Firing.Rate..Hz. Lower.TI / Mean.Firing.Rate..Hz. Upper.TI / Median.Mean.ISI Lower.TI / Median.Mean.ISI Upper.TI: statistical tolerance interval of the ΔΔ% effect, One-sided interval
Procedure: (§1) At DIV28, spontaneous neuronal activity obtained for 30 min in culture solution was defined as the baseline.
(§2) Data analysis was captured using AxIs suite software (Axion Biosystems Inc., version 3.6.2) and further analyzed using GraphPad Prism (version 9.00; GraphPad Software Inc., San Diego, CA). […] An active well should have more than 40% active electrodes. All wells below this threshold were discarded upon these quality criteria. For the downstream statistical analysis, the data on each MEA parameter was first expressed as the ratio of exposed wells (percentage change between baseline and the treatment) and then normalized to the average of the control within the same plate. i.e., Baseline corrected ratios of n= 7 or eight wells were averaged per condition. Each well of the MEA served as its own control, and the changes in the electrical activity elicited by the treatments were expressed as a percentage of that control activity and normalized to the wells treated with the vehicle control dimethyl sulfoxide (DMSO). […] Differences were determined using the non-parametric Wilcoxon Mann Whitney test; p-values below 0.05 were considered significant. Data are expressed as means ± S.E.M.
(§3) Thereafter, based on the effects of vehicles and positive controls, we determined the cut-off points between the different effect zones according to the key parameters selected as described in the previous subsection. The zones were defined as follows. The “no effect” zone reflects parameter changes that are most likely within vehicle variability. The “mild” and “strong” zones are differentiated bidirectionally showing mild and strong effects.
(§4) The respective hazard class was determined by a cumulative scoring of individual parameters using a scoring matrix, which was based on the following three fundamental components: (1) selection of the six key relevant parameters, (2) defining the cutoffs for the level of effect, and (3) defining weighted points per parameter for the level of hazard potential. The scoring matrix concluded with the addition of a weighted point algorithm to discriminate distinct degrees of neuronal hazard. […] The weighted points were defined on the importance of a parameter (and the direction of effect), as well as the identification of an expected hazard for different pharmacological modes of action. The overall hazard score is derived from the sum of all weighted parameters, which could be converted into a specific hazard label. The weighted points and total score range associated with the various hazard labels were optimized using an iterative process.

[7] = system: rat primary cortical neurons
Procedure: as §1, §2, §3, §4

Row | Compound | FDA prescription information at therapeutic dose (Convulsion/ Seizure/Lower the seizure threshold/withdrawal) [1] | Percentage seizures of total number of ADRs [2] | Classification* (degree of seizure risk) [3] | Free Cmax highest [4] | SIDER ADR on-/off-label [5] | further results
1 | CN1CCN(C2=Nc3ccccc3Oc3ccc(Cl)cc32)CC1 [Loxapine] | On label | 1.962% | Risk | 0.044 µM | no frequency information | –
2 | NC(=O)C[S+]([O-])C(c1ccccc1)c1ccccc1 (stereo not shown) [Modafinil] | not found on label | 1.739% | Risk | 19.6 µM | postmarketing | –
3 | NCc1cc(=O)[nH]o1 [Muscimol] | – | – | Risk | – | – | Area.Under.Cross.Correlation Lower.TI [6]: -100; Area.Under.Cross.Correlation Upper.TI [6]: -21.99; Burst.Duration...Avg.(s. Lower.TI) [6]: -100; Burst.Duration...Avg.(s. Upper.TI) [6]: 465.5; Mean.Firing.Rate..Hz. Lower.TI [6]: -100; Mean.Firing.Rate..Hz. Upper.TI [6]: -23.34; Median.Mean.ISI Lower.TI [6]: -100; Median.Mean.ISI Upper.TI [6]: 1.885
4 | CN1CCC[C@H]1c1cccnc1 [Nicotine] | not found on label | – | – | 0.18 µM | not found on label | hazard classification in the hazard scoring system [7]: non-neuroactive; hazard score group in Figure 3 [7]: Non-Neuro Active
5 | N#Cc1ccccc1-c1cc(-c2ccccn2)cn(-c2ccccc2)c1=O [Perampanel] | not found on label | 7.31% | Low risk | 0.163 µM | not found on label | hazard classification in the hazard scoring system ([6]; rat primary neurons on MEA): hazards; also recorded: high hazard
6 | CCOC(=O)C1(c2ccccc2)CCN(C)CC1 [Pethidine] | – | – | – | 0.25 µM | no frequency information | hazard score group in Figure 3 [7]: Neuro Active to hazard
7 | CC(C)C[C@H](CN)CC(=O)O [Pregabalin] | – | 0.8034% | – | – | – | hazard score group in Figure 3 [7]: Non-Neuro Active
8 | CCN(CC)CCCC(C)Nc1c2ccc(Cl)cc2nc2ccc(OC)cc12 (stereo not shown) [Quinacrine] | not found on label | 1.17% | No risk | 0.13 µM | – | –
9 | CS(=O)(=O)c1ccc(C2=C(c3ccccc3)C(=O)OC2)cc1 [Rofecoxib] | – | 1.2136% | No risk | 0.13 µM | not found on label | –
10 | C[N+](C)(C)CCOC(=O)CCC(=O)OCC[N+](C)(C)C [Succinylcholine] | not found on label | 0.792% | No risk | 0.17 µM | not found on label | –
11 | CNS(=O)(=O)Cc1ccc2[nH]cc(CCN(C)C)c2c1 [Sumatriptan] | On label | 0.8281% | Risk | 0.388 µM | rare (<0.1%) | –
12 | Cc1ccc(C(=O)c2cc(O)c(O)c([N+](=O)[O-])c2)cc1 [Tolcapone] | not found on label | 0.8264% | No risk | 0.01 µM | not found on label | –
13 | CN1[C@@H]2CC[C@H]1C[C@@H](OC(=O)c1c[nH]c3ccccc13)C2 [Tropisetron] | – | 1.067% | No risk | 0.08 µM | not found on label | –
14 | Cc1ccc(Nc2nccc(N(C)c3ccc4c(C)n(C)nc4c3)n2)cc1S(N)(=O)=O [pazopanib] | not found on label | 0.4565% | Risk | 1.33 µM | not found on label | –
15 | Picrotoxin | – | – | Risk | – | – | Area.Under.Cross.Correlation Lower.TI [6]: -46.52; Area.Under.Cross.Correlation Upper.TI [6]: 62.45; Burst.Duration...Avg.(s. Lower.TI) [6]: -2.013; Burst.Duration...Avg.(s. Upper.TI) [6]: 280.4; Mean.Firing.Rate..Hz. Lower.TI [6]: -10.62; Mean.Firing.Rate..Hz. Upper.TI [6]: 76.43; Median.Mean.ISI Lower.TI [6]: -29.71; Median.Mean.ISI Upper.TI [6]: 0.6132
